# Data taken from publication PMC12605013, “SAG1.3-derived Frizzled-targeting small-molecule compounds” (The Journal of Biological Chemistry, 2025).
# Key:
# ΔCRD-Nluc-FZD6 = molecular target: T1, ΔCRD-Nluc-FZD6 (Homo sapiens, UniProt O60353); experiment: BRET-based BODIPY-cyclopamine competition binding at FZD6 lacking the CRD; settings: BODIPY-cyclopamine 200 nM; ΔFZD1-10 HEK293T cells; read-out: pIC50 (11) mean ± SEM, ΔCRD-Nluc-FZD6 (converted)
# T1 construct: amplifying ΔCRD-FZD6 (starting from D156) using SNAP-FZD6 as a template; expressed in transfected cells; host or cells: ΔFZD1–10 HEK293T cells
# T1 sequence (O60353 156-706): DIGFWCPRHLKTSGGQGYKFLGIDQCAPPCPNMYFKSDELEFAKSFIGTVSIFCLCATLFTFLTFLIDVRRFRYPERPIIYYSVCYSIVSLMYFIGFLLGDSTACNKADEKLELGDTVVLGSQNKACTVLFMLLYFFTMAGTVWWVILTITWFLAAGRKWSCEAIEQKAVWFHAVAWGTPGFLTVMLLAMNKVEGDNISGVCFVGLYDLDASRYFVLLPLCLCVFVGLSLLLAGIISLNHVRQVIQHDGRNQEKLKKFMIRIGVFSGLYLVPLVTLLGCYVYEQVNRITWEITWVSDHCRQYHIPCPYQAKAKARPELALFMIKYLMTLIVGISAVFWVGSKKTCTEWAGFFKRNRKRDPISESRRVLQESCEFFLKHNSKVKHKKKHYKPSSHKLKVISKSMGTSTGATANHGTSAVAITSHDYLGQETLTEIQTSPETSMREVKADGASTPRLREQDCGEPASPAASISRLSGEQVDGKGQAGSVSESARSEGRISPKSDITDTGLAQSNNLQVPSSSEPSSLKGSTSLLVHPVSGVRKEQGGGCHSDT
# Method: After 24 h, cells were washed once with Hanks' balanced salt solution (HBSS), followed by the addition of 80 μl of HBSS. Next, 10 μl of the competitive ligand, that is, the tested SAG1.3 derivative (either in different concentrations for the concentration–response curves or at a final concentration of 10 μM for the first screens) and 10 μl of the fluorescent tracer BODIPY–cyclopamine (final concentration: 300 nM for the first screens, 200 nM for the concentration–response experiments) were added. All serial dilutions were prepared in HBSS. The cells were incubated for 90 min at 37 °C without additional CO2, after which 10 μl of luciferase substrate diluted in HBSS (furimazine; Promega, N1572, final dilution: 1:1000 for first screening) and coelenterazine h (Biosynth; final concentration: 5 μM for concentration–response experiments) were added to the cells. Following a 10 min incubation period in the dark, the measurement was started on a BMG Labtech ClarioStar or TECAN Spark multimode microplate reader, prewarmed to 37 °C. Nluc bioluminescence was detected between 460 and 490 nm (ClarioStar) or 460 and 500 nm (TECAN Spark). The emission of the fluorescent tracer was detected between 520 and 550 nm (ClarioStar) or between 520 and 560 nm (TECAN Spark). […]
# FZD5–DEP–Clamp sensor = experiment: FZD5–DEP–Clamp BRET sensor in stably expressing HEK293A cells; format: cell-based, human
# Method: To generate the stable FZD5–DEP–Clamp cell line, HEK293A cells were seeded at a density of 500,000 cells/well in a 6-well plate. On the next day, the adherent cells were transfected with 2 μg of FZD5–DEP–Clamp (TK) plasmid using PEI as the transfection reagent. After 2 days of transfection, cells were detached and transferred to a 75 cm^2 flask. Stably transfected cells were selected using complete medium (DMEM + 10% fetal calf serum + 1% penicillin–streptomycin) supplemented with 2000 μg/ml G-418 sulfate (Gibco; catalog no.: 10131027) for 3 weeks. After obtaining stable growth, cell culture of the stable cell line was continued with 500 μg/ml G-418.
# For kinetic experiments with the FZD5–DEP–Clamp sensor, BRET values were first baseline-corrected for every well separately by subtracting the average of the first three reads prior ligand addition. Afterward, the average values for vehicle-containing wells were subtracted for every timepoint to get access to actual ligand-induced changes in BRET ratio (ΔBRET values).
# Figure S4. […] (A) Shown is the BRET time-course recorded upon addition of 30 µM compound 11 or vehicle (DMSO). […] The cell surface pool of transiently-transfected HiBiT-FZD5 (B) and HiBiT-FZD6 (C) was assessed by addition of recombinant LgBiT in combination with detection of NanoBiT luminescence. […]
smiles,measurement,setting,value
"CC(=O)Nc1cccc(C(=O)NC2CCC(N(Cc3cccc(-c4ccncc4)c3)C(=O)c3sc4ccccc4c3Cl)CC2)c1 (stereo not drawn) [compound 11, N-((1r,4r)-4-(3-Acetamidobenzamido)cyclohexyl)-3-chloro-N-(3-(pyridin-4-yl)benzyl)benzo[b]thiophene-2-carboxamide]",IC50,ΔCRD-Nluc-FZD6,851 nM
same,Effect on WNT-induced FZD5–DEP–Clamp response,FZD5–DEP–Clamp sensor; 500 ng/ml high-purity WNT-3A with 30 μM compound,able to interfere with the WNT-induced effects
same,"BRET response of FZD5–DEP–Clamp, compound alone","FZD5–DEP–Clamp sensor; 30 µM compound, agonist mode",did not elicit a robust change in BRET response
